Test results published in ChEMBL document CHEMBL1146743, “Three new cyclostellettamines, which inhibit histone deacetylase, from a marine sponge of the genus Xestospongia” (Bioorg Med Chem Lett, 2004).

Assays:
[1] = target: Histone deacetylase; test: Inhibitory activity against histone deacetylase (HDAC); assay type: protein assay, Homo sapiens
[2] = system: HeLa; test: Cytotoxicity against human cervix carcinoma (HeLa) cell line; assay type: functional, cell-based
[3] = system: 3Y1 cell line; test: Inhibitory activity against rat fibroblast (3Y1) cell line; assay type: functional, cell-based
[4] = system: P388; test: Cytotoxicity against mouse leukemia (P388) cell line; assay type: functional, cell-based

IC50 [1] | Structure (SMILES) | IC50 [2] | IC50 [3] | IC50 [4]
30 µM | C1=C/CCCCCC[n+]2cccc(c2)CCCCCCCCCCCCC[n+]2cccc(c2)CCCCCC/1.O=C([O-])C(F)(F)F.O=C([O-])C(F)(F)F | 1800 nM | 3.2 µM | 1300 nM
61 µM | C1=C/CCCC[n+]2cccc(c2)CCCCCCCCCCCC[n+]2cccc(c2)CCCCCC/1.O=C([O-])C(F)(F)F.O=C([O-])C(F)(F)F | 1800 nM | 7.2 µM | 2100 nM
17 µM | C1=C/CCCCCC[n+]2cccc(c2)CCCCCCCCCCCC[n+]2cccc(c2)CCCCCC/1.O=C([O-])C(F)(F)F.O=C([O-])C(F)(F)F | 600 nM | 4.3 µM | 1300 nM
80 µM | C1=C/CCC[n+]2cccc(c2)CCCCCCCCCCCC[n+]2cccc(c2)CCCCCC/1.O=C([O-])C(F)(F)F.O=C([O-])C(F)(F)F | 2800 nM | 11 µM | 2700 nM
